From patent publication US10573426B2, “Fluorinated nitriles as dielectric gases” (3M INNOVATIVE PROPERTIES COMPANY, priority 2012, dated 2020) come the findings set out here.

The test system of one series is rats. The series is described as follows: 4 hour inhalation LC50 in rats. In kind it is in vivo. How it is done:
(§1) For example, heptafluoroisobutyronitrile and 2,3,3,3-tetrafluoro-2-(trifluoromethoxy) propanenitrile have 4 hour inhalation lethal concentration at 50% (“LC-50”, defined as the dose required to produce lethality in half the members of a tested population after a specified test duration) (in rats) values of about 15,000 ppm. […] The nitriles of the present disclosure achieve these lower toxicities without the addition of additives such as nitrite esters as in U.S. Pat. No. 4,547,316.

The next series is described as follows: 6 hour inhalation LC50. To be noted: species not given. The class given is in vivo. How it is done: as §1

The structures appear in SMILES notation.

As to `N#CC(F)(OC(F)(F)F)C(F)(F)F` (centres unmarked) [2,3,3,3-tetrafluoro-2-(trifluoromethoxy)propanenitrile], the “4 hour inhalation lethal concentration at 50% (LC-50)” value with rats is on record as “about 15,000 ppm”. With `N#CC(F)(F)C(F)(F)C(F)(F)F` [CF3CF2CF2CN], in the series with rats, the “4 hour inhalation lethal concentration at 50% (LC-50)” value is listed as “less than 6,000 ppm”. On the same count and under the same terms, then `N#CC(F)(F)C(F)(F)F` [CF3CF2CN], with 2731 ppm. Regarding `N#CC(F)(F)F` [CF3CN], in the series “6 hour inhalation LC50”, the “6 hour inhalation LC50” value stood at 240 ppm. As to `N#CC(F)(C(F)(F)F)C(F)(F)F` [heptafluoroisobutyronitrile, Heptafluoroisobutyronitrile], the “4 hour inhalation lethal concentration at 50% (LC-50)” value in the series on rats is given as “about 15,000 ppm”.
